Test results taken from patent EP1712550A2, “Substituted triazole diamine derivatives as kinase inhibitors” (priority 2000, dated 2002).
Where two headings read alike, the source gives them in different places.

Experiments:
Assay type in all cases: biochemical
[1] = target: T1, EGFR (epidermal growth factor receptor) (Homo sapiens, UniProt P00533); assay: Kinase Selectivity Assay EGF-R
T1 construct: is purified from human A431 cell membranes (Sigma, St. Louis, MO, Cat.# E3641); purchased Sigma, St. Louis, MO E3641; host or cells: human A431 cell membranes (endogenous protein)
T1 sequence (P00533 25-1210): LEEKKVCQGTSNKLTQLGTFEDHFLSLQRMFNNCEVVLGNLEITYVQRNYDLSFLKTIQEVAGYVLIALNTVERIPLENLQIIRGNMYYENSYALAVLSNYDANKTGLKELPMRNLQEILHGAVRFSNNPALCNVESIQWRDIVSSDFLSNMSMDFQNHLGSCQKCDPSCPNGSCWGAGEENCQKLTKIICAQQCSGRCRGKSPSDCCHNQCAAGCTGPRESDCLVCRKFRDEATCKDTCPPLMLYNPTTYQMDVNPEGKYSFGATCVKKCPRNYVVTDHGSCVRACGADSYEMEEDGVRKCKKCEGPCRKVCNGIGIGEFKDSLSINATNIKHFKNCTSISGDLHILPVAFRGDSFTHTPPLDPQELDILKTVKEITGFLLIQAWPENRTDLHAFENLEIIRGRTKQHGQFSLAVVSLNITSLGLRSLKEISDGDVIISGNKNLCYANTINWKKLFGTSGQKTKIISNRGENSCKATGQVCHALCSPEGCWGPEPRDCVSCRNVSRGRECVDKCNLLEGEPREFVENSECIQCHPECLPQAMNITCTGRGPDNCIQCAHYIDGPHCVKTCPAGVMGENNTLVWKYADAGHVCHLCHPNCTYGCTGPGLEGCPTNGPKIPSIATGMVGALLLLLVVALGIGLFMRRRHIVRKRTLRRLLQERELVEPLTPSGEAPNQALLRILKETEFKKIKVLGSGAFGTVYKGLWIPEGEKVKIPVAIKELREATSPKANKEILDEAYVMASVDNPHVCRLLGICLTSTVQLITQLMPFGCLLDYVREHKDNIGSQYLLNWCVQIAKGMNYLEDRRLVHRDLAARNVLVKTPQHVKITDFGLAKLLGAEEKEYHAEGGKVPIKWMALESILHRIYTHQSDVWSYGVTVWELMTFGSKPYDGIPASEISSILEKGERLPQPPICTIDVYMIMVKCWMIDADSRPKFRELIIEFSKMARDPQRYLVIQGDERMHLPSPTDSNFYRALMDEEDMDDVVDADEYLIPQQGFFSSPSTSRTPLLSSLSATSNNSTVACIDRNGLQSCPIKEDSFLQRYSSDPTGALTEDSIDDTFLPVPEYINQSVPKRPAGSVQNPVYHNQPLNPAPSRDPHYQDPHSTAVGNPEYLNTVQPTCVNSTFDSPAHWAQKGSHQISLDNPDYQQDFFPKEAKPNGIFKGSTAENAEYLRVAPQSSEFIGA

[2] = target: T2, VEGF-R (vascular endothelial growth factor receptor-2) (Rattus norvegicus, UniProt O08775); assay: VEGF-R Screening Assay; conditions: read-out: Kinase Assay (IC50 uM) VEGF-R
T2 construct: 6xHis (polyhistidine) (N)
T2 sequence (O08775 786-1343): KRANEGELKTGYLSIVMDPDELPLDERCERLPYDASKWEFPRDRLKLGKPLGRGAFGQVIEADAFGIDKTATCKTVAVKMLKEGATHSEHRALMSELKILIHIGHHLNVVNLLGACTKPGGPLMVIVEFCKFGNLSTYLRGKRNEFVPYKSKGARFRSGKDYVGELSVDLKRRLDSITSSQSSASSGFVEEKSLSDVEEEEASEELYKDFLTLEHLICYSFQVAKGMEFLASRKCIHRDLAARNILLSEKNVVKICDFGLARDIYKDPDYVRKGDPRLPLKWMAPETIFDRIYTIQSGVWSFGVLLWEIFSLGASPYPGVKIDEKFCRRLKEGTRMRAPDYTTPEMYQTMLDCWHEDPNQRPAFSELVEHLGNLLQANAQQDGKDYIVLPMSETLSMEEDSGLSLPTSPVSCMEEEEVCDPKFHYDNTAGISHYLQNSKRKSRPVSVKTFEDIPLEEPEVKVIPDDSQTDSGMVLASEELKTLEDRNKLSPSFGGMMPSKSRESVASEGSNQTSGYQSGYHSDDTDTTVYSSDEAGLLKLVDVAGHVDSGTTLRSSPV
Method: (§1) 70 µL of the kinase reaction mixture was dispensed into the well of a streptavidin coated FlashPlate™ (Cat. # SMP103, NEN, Boston, MA). Then 1 µL of test compound stock in 100% DMSO was added to the wells resulting in a final concentration of 1% DMSO in the reaction with a 100 µL final reaction volume. Next, soluble rat tyrosine kinase containing an N-terminal 6XHIS tag was diluted in 50 mM Tris-HCl pH=8.0, 0.1% BSA at a concentration of 5 ng per µL and 30 µL (150 ng enzyme per test well) was added to each well to initiate the reaction. The reaction was incubated for one hour at 30°C. At the end of the 1-hour incubation, the reaction was terminated by aspirating the reaction mixture from the plate and washing the wells twice with PBS containing 100 mM EDTA. The PLC1 biotinylated peptide substrate became immobilized on the Flashplate™ and the incorporation of ^33P-γ-ATP was measured by reading the plate on a scintillation counter. Inhibition of the enzymatic activity of the VEGF-R was measured by observing a reduced amount of ^33P-γ-ATP incorporated into the immobilized peptide. […]

[3] = target: T3, CDK1:Cyclin-B (Homo sapiens, UniProt P06493); assay: CDK1 Screening Assay; conditions: read-out: Kinase Assay (IC50 uM) CDK1
T3 construct: purchased New England Biolabs, Beverly, MA 6020; host or cells: insect cells
T3 sequence (P06493 whole entry): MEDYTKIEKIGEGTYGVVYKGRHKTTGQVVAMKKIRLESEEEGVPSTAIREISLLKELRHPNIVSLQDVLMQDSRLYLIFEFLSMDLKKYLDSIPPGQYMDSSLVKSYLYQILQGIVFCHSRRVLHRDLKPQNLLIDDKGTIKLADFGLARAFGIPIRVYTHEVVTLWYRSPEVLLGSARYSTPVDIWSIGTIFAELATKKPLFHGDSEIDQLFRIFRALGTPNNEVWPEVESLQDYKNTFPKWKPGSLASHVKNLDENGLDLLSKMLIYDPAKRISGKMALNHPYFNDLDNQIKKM
T3 sequence (P14635 whole entry partner): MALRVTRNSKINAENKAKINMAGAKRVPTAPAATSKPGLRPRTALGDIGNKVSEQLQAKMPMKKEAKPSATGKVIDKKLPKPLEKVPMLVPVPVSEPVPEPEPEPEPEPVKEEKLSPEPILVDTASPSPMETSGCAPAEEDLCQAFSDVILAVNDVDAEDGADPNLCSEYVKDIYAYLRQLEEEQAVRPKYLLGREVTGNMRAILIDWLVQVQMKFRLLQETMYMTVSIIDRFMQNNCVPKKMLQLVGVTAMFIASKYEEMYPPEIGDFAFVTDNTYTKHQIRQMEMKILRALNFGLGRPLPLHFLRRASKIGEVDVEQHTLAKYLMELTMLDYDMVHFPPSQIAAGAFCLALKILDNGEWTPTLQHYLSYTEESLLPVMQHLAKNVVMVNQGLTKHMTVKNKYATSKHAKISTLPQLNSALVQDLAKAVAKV
Method: as §1, with “100 µl” for “100 µL”, “Next, CDK1:Cyclin-B protein” for “Next, soluble rat tyrosine kinase containing an N-terminal 6XHIS tag”, “of 1” for “of 5”, “30 µl (30ng” for “30 µL (150 ng”, “The histone-H1” for “The PLC1”, “of CDK1” for “of the VEGF-R”

[4] = target: T4, HER2 (human epidermal growth factor receptor-2) (Homo sapiens, UniProt P04626); assay: Kinase Selectivity Assay HER2
T4 construct: begins at amino acid 676 followed by the remainder of the HER2 cytoplasmic domain; polyhistidine (N)
T4 sequence (P04626 676-1255 limits assumed): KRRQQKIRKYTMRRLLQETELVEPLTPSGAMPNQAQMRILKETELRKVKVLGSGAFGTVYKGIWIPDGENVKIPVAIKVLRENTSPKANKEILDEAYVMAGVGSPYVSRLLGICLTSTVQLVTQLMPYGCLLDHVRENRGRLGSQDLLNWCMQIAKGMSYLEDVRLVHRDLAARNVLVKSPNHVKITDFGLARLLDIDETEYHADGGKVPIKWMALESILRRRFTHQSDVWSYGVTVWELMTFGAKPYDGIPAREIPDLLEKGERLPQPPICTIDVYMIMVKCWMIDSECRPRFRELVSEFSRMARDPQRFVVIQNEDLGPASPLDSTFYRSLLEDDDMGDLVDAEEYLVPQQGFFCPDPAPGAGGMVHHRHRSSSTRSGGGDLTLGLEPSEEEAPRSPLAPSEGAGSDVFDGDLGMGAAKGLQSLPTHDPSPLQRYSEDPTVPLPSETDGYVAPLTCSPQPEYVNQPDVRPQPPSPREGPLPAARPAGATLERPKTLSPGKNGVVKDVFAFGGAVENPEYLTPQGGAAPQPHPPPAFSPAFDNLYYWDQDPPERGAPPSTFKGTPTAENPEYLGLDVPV

[5] = Kinase Selectivity, Table 2, read-out: EGF-R IC50
[6] = read-out: Kinase Assay (IC50 uM) EGF-R
[7] = read-out: Kinase Assay (IC50 uM) HER2 Kinase

Nc1nc(Nc2ccc(S(N)(=O)=O)cc2)nn1C(=O)c1c(F)cccc1F [Cpd 1, 4-[[5-amino-1-(2,6-difluorobenzoyl)-1H-1,2,4-triazol-3-yl]amino]-benzenesulfonamide]
IC50 [1, 5]: > 100 µM

Nc1nc(Nc2ccc(S(N)(=O)=O)cc2)nn1C(=O)c1cccs1 [Cpd 14, 4-[[5-amino-1-(2-thienylcarbonyl)-1H-1,2,4-triazol-3-yl]amino]-benzenesulfonamide]
IC50 [1, 5]: 1.92 µM

Nc1nc(Nc2ccc(S(N)(=O)=O)cc2)nn1C(=O)c1sccc1F [Cpd 16, 4-[[5-amino-1-[(3-fluoro-2-thienyl)carbonyl]-1H-1,2,4-triazol-3-yl]amino]-benzenesulfonamide]
IC50 [1, 5]: > 100 µM

Nc1nc(Nc2ccc(S(N)(=O)=O)cc2)nn1C(=O)c1sccc1Cl [Cpd 17, 4-[[5-amino-1-[(3-chloro-2-thienyl)carbonyl]-1H-1,2,4-triazol-3-yl]amino]-benzenesulfonamide]
IC50 [1, 5]: 4.13 µM

Nc1nc(Nc2ccc(S(=O)(=O)N3CCCCC3)cc2)nn1C(=O)c1cccs1 [Cpd 23, N^3-[4-(1-piperidinylsulfonyl)phenyl]-1-(2-thienylcarbonyl)-1H-1,2,4-triazole-3,5-diamine]
IC50 [1, 5]: > 100 µM

Nc1nc(Nc2ccc(S(N)(=O)=O)cc2)nn1C(=O)c1ccsc1 [Cpd 30, 4-[[5-amino-1-(3-thienylcarbonyl)-1H-1,2,4-triazol-3-yl]amino]-benzenesulfonamide]
IC50 [1, 5]: 9.6 µM

CCc1ccc(C(=O)n2nc(Nc3ccc(S(N)(=O)=O)cc3)nc2N)s1 [Cpd 32, 4-[[5-amino-1-[(5-ethyl-2-thienyl)carbonyl]-1H 1,2,4-triazol-3-yl]amino]-benzenesulfonamide]
IC50 [1, 5]: > 100 µM

Cc1nc(C)c(C(=O)n2nc(Nc3ccc(S(N)(=O)=O)cc3)nc2N)s1 [Cpd 34, 4-[[5-amino-1-[(2,4-dimethyl-5-thiazolyl)carbonyl]-1H-1,2,4-triazol-3-yl]amino]-benzenesulfonamide]
IC50 [1, 6]: > 100 µM
IC50 [2]: 0.068 µM

Nc1nc(Nc2ccc(S(N)(=O)=O)cc2)nn1C(=O)C1CCCC1 [Cpd 38, 4-[[5-amino-1-(cyclopentylcarbonyl)-1H-1,2,4-triazol-3-yl]amino]-benzenesulfonamide]
IC50 [3]: 0.029 µM
IC50 [1, 6]: > 100 µM
IC50 [2]: 0.88 µM

Nc1nc(Nc2ccc(S(N)(=O)=O)cc2)nn1C(=O)C1CCCCC1 [Cpd 39, 4-[[5-amino-1-(cyclohexylcarbonyl)-1H-1,2,4-triazol-3-yl]amino]-benzenesulfonamide]
IC50 [3]: 0.012 µM
IC50 [1, 6]: > 100 µM
IC50 [2]: 0.334 µM

CC(C)(C)c1ccc(C(=O)n2nc(Nc3ccc(S(N)(=O)=O)cc3)nc2N)s1 [Cpd 51, 4-[[5-amino-1-[[5-(1,1-dimethylethyl)-2-thienyl]carbonyl]-1H-1,2,4-triazol-3-yl]amino]-benzenesulfonamide]
IC50 [1, 6]: 1.1 µM

Nc1ccc(F)c(C(=O)n2nc(Nc3ccc(S(N)(=O)=O)cc3)nc2N)c1F [Cpd 55, 4-[[5-amino-1-(3-amino-2,6-difluorobenzoyl)-1H-1,2,4-triazol-3-yl]amino]-benzenesulfonamide]
IC50 [1, 6]: 16.1 µM
IC50 [2]: 0.577 µM

Cc1ccccc1C(=O)n1nc(Nc2ccc(S(N)(=O)=O)cc2)nc1N [Cpd 57, 4-[[5-amino-1-(2-methylbenzoyl)-1H-1,2,4-triazol-3-yl]amino]-benzenesulfonamide]
IC50 [1, 6]: > 100 µM
IC50 [2]: 0.191 µM

CC(O)c1ccc(F)c(C(=O)n2nc(Nc3ccc(S(N)(=O)=O)cc3)nc2N)c1F (stereo not shown) [Cpd 58, 4-[[5-amino-1-[2,6-difluoro-3-(1-hydroxyethyl)benzoyl]-1H-1,2,4-triazol-3-yl]amino]-benzenesulfonamide]
IC50 [1, 6]: > 10 µM

Nc1nc(Nc2ccc(S(N)(=O)=O)cc2)nn1C(=O)c1c(F)cccc1Cl [Cpd 70, 4-[[5-amino-1-(2-chloro-6-fluorobenzoyl)-1H-1,2,4-triazol-3-yl]amino]-benzenesulfonamide]
IC50 [1, 6]: > 100 µM
IC50 [2]: 0.911 µM

CN1CCN(c2ccc(Nc3nc(N)n(C(=O)c4c(F)cccc4F)n3)cc2)CC1 [Cpd 71, 1-(2,6-difluorobenzoyl)-N^3-[4-(4-methyl-1-piperazinyl)phenyl]-1H-1,2,4-triazole-3,5-diamine]
IC50 [1, 6]: > 10 µM

CNS(=O)(=O)c1ccc(Nc2nc(N)n(C(=O)c3sccc3C)n2)cc1 [Cpd 82, 4-[[5-amino-1-[(3-methyl-2-thienyl)carbonyl]-1H-1,2,4-triazol-3-yl]amino]-N-methyl-benzenesulfonamide]
IC50 [1, 6]: > 100 µM
IC50 [4, 7]: 0.118 µM
IC50 [2]: 0.022 µM

CNS(=O)(=O)c1ccc(Nc2nc(N)n(C(=O)c3sc(C)cc3C)n2)cc1 [Cpd 83, 4-[[5-amino-1-[(3,5-dimethyl-2-thienyl)carbonyl]-1H-1,2,4-triazol-3-yl]amino]-N-methyl-benzenesulfonamide]
IC50 [3]: 0.008 µM
IC50 [1, 6]: > 100 µM
IC50 [2]: 0.04 µM

CCc1ccc(C(=O)n2nc(Nc3ccc(S(=O)(=O)NC)cc3)nc2N)s1 [Cpd 84, 4-[[5-amino-1-[(5-ethyl-2-thienyl)carbonyl]-1H-1,2,4-triazol-3-yl]amino]-N-methyl-benzenesulfonamide]
IC50 [1, 6]: > 10 µM
IC50 [4, 7]: 0.052 µM
IC50 [2]: 0.043 µM

Cc1cc(C)c(C(=O)n2nc(Nc3ccc(-n4ccnc4)cc3)nc2N)s1 [Cpd 92, 1-[(3,5-diinethyl-2-thienyl)carbonyl]-N^3-[4-(1H-imidazol-1-yl)phenyl]-1H-1,2,4-triazole-3,5-diamine]
IC50 [1, 6]: > 100 µM

CCc1ccc(C(=O)n2nc(Nc3ccc(S(=O)(=O)NCCN(C)C)cc3)nc2N)s1 [Cpd 103, 4-[[5-amino-1-[(5-ethyl-2-thienyl)carbonyl]-1H-1,2,4-triazol-3-yl]amino]-N-[2-(dimethylamino)ethyl]-benzenesulfonamide]
IC50 [1, 6]: > 10 µM

Cc1ccsc1C(=O)n1nc(Nc2ccc(S(=O)(=O)NCCN(C)C)cc2)nc1N [Cpd 104, 4-[[5-amino-1-[(3-methyl-2-thienyl)carbonyl]-1H-1,2,4-triazol-3-yl]amino]-N-[2-(dimethylamino)ethyl]-benzenesulfonamide]
IC50 [1, 6]: > 10 µM
IC50 [4, 7]: 0.202 µM
IC50 [2]: 0.016 µM

CCc1ccc(C(=O)n2nc(Nc3ccc(NS(C)(=O)=O)cc3)nc2N)s1 [Cpd 110, N-[4-[[5-amino-1-[(5-ethyl-2-thienyl)carbonyl]-1H-1,2,4-triazol-3-yl]amino]phenyl]-methanesulfonamide]
IC50 [3]: 0.022 µM
IC50 [1, 6]: > 10 µM
IC50 [2]: 0.014 µM

Cc1ccsc1C(=O)n1nc(Nc2ccc(N3CCNC3=O)cc2)nc1N [Cpd 113, 1-[4-[[5-amino-1-[(3-methyl-2-thienyl)carbonyl]-1H-1,2,4-triazol-3-yl]amino]phenyl]-2-imidazolidinone]
IC50 [1, 6]: > 10 µM

Cc1ccsc1C(=O)n1nc(Nc2ccc(N3CCCS3(=O)=O)cc2)nc1N [Cpd 116, N^3-[4-(1,1-dioxido-2-isothiazolidinyl)phenyl]-1-[(3-methyl-2-thienyl)carbonyl]-1H-1,2,4-triazole-3,5-diamine]
IC50 [1, 6]: > 100 µM

Nc1nc(Nc2ccc(S(=O)(=O)Nc3ccccn3)cc2)nn1C(=O)c1c(F)cccc1F [Cpd 118, 4-[[5-amino-1-(2,6-difluorobenzoyl)-1H-1,2,4-triazol-3-yl]amino]-N-(2-pyridinyl)-benzenesulfonamide]
IC50 [1, 6]: > 100 µM

Cc1cc(C)c(C(=O)n2nc(Nc3ccc(S(=O)(=O)Nc4ccccn4)cc3)nc2N)s1 [Cpd 120, 4-[[5-amino-1-[(3,5-dimethyl-2-thienyl)carbonyl]-1H-1,2,4-triazol-3-yl]amino]-N-(2-pyridinyl)-benzenesulfonamide]
IC50 [1, 6]: > 10 µM
IC50 ([4]; Table 1, read-out: HER2 IC50): 1 µM
IC50 [4, 7]: 1 µM

Cc1ccc(F)c(C(=O)n2nc(N)nc2Nc2ccc(S(N)(=O)=O)cc2)c1F [Cpd 123, 4-[[3-amino-1-(2,6-difluoro-3-methylbenzoyl)-1H-1,2,4-triazol-5-yl]amino]-benzenesulfonamide]
IC50 [1, 6]: > 100 µM
IC50 [2]: 5.52 µM
